Drawing on patent US8436023B2, “Cyclohexyl-azetidinyl antagonists of CCR2” (Janssen Pharmaceutica N.V., priority 2010, dated 2013), this text covers IC50 for eleven compounds.

For orientation: IC50 means the concentration needed to halve the response being measured.

This assay has as its target T1, CCR2 (Homo sapiens, UniProt P41597).
T1 construct: host or cells: THP-1 human monocytic cells
T1 sequence (P41597 1-360 isoform P41597-2): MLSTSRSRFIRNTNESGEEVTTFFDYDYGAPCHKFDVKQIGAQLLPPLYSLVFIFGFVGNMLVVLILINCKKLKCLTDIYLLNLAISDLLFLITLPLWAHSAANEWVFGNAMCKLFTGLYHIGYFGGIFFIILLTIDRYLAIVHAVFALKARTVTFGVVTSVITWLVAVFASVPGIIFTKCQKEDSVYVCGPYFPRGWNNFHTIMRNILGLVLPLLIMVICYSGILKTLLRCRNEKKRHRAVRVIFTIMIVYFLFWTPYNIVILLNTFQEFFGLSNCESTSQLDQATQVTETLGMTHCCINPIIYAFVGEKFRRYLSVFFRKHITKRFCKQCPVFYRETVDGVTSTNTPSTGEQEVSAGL
Put plainly: MCP-1 Receptor Binding Assay in THP-1 Cells. The note with it: 0.5 nM 125I labeled MCP-1, 2 hours at 30° C., less polar isomer tested where stated, read-out: Inhibition of MCP-1 Binding IC50, CCR2 Binding. In a few lines:
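Whole THP-1 cells incubated 2 h at 30 °C with 0.5 nM 125I-MCP-1 and varying concentrations of test compound; bound radioactivity counted after filter harvesting. Where no IC50 obtained, % inhibition given at 25 μM.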
For the compound `NC(=O)n1nc(NCC(=O)NC2CN(C3CCC(O)CC3)C2)c2cc(C(F)(F)F)ccc21` (centres unmarked) [Example 85, 3-({[1-(4-Hydroxy-cyclohexyl)-azetidin-3-ylcarbamoyl]-methyl}-amino)-5-trifluoromethyl-indazole-1-carboxylic acid amide], the IC50 was 530 nM.

As to `CC(C)(C)NC(=O)n1nc(NCC(=O)NC2CN(C3CCC(C#N)CC3)C2)c2cc(C(F)(F)F)ccc21` (centres unmarked) [Example 86, 3-({[1-(4-Cyano-cyclohexyl)-azetidin-3-ylcarbamoyl]-methyl}-amino)-5-trifluoromethyl-indazole-1-carboxylic acid tert-butylamide], the IC50 came to 750 nM.

For `N#CC1CCC(N2CC(NC(=O)CNc3nn(C(N)=O)c4ccc(C(F)(F)F)cc34)C2)CC1` (centres unmarked) [Example 87, 3-({[1-(4-Cyano-cyclohexyl)-azetidin-3-ylcarbamoyl]-methyl}-amino)-5-trifluoromethyl-indazole-1-carboxylic acid amide], the 50% inhibitory concentration (IC50) came out at 520 nM.

As for `CCOC(=O)C1CCC(N2CC(NC(=O)CNc3nn(C(=O)NC(C)(C)C)c4ccc(C(F)(F)F)cc34)C2)CC1` (centres unmarked) [Example 88, 4-{3-[2-(1-tert-Butylcarbamoyl-5-trifluoromethyl-1H-indazol-3-ylamino)-acetylamino]-azetidin-1-yl}-cyclohexanecarboxylic acid ethyl ester], the concentration for half-maximal inhibition (IC50) came to 360 nM.

For the compound `CCOC(=O)C1CCC(N2CC(NC(=O)CNc3nn(C(N)=O)c4ccc(C(F)(F)F)cc34)C2)CC1` (centres unmarked) [Example 89, 4-{3-[2-(1-Carbamoyl-5-trifluoromethyl-1H-indazol-3-ylamino)-acetylamino]-azetidin-1-yl}-cyclohexane carboxylic acid ethyl ester], the IC50 is 56 nM.

`CC(C)NC(=O)n1nc(NCC(=O)NC2CN(C3CCC(c4ccccc4)CC3)C2)c2cc(C(F)(F)F)ccc21` (centres unmarked) [Example 90, 3-({[1-(4-Phenyl-cyclohexyl)-azetidin-3-ylcarbamoyl]-methyl}-amino)-5-trifluoromethyl-indazole-1-carboxylic acid isopropylamide]: the IC50 came out at 29 nM.

On to `COc1ccc(C2CCC(N3CC(NC(=O)CNc4nn(C(=O)NC(C)C)c5ccc(C(F)(F)F)cc45)C3)CC2)cn1` (centres unmarked) [Example 91, 3-[({1-[4-(6-Methoxy-pyridin-3-yl)-cyclohexyl]-azetidin-3-ylcarbamoyl}-methyl)-amino]-5-trifluoromethyl-indazole-1-carboxylic acid isopropylamide], for which the IC50 was determined as 14 nM.

For `CC(C)NC(=O)n1nc(NCC(=O)NC2CN(C3CCC(C(C)C)CC3)C2)c2cc(C(F)(F)F)ccc21` (centres unmarked) [Example 92, 3-({[1-(4-Isopropyl-cyclohexyl)-azetidin-3-ylcarbamoyl]-methyl}-amino)-5-trifluoromethyl-indazole-1-carboxylic acid isopropylamide], the IC50 amounted to 1600 nM.

Consider `CC(C)NC(=O)n1nc(NCC(=O)NC2CN(C3CCC(C4CCCCC4)CC3)C2)c2cc(C(F)(F)F)ccc21` (centres unmarked) [Example 93, 3-{[(1-Bicyclohexyl-4-yl-azetidin-3-ylcarbamoyl)-methyl]-amino}-5-trifluoromethyl-indazole-1-carboxylic acid isopropylamide], for which the half-maximal inhibitory concentration (IC50) is 3100 nM.

Turning to `C=CCn1nc(NCC(=O)NC2CN(C3CCC(C(=O)OCC)CC3)C2)c2cc(C(F)(F)F)ccc21` (centres unmarked) [Example 94, 4-{3-[2-(1-Allyl-5-trifluoromethyl-1H-indazol-3-ylamino)-acetylamino]-azetidin-1-yl}-cyclohexanecarboxylic acid ethyl ester], the IC50 was 53 nM.

Regarding `C=CCn1nc(NCC(=O)NC2CN(C3CCC(C4CCCCC4)CC3)C2)c2cc(C(F)(F)F)ccc21` (centres unmarked) [Example 95, 2-(1-Allyl-5-trifluoromethyl-1H-indazol-3-ylamino)-N-(1-bicyclohexyl-4-yl-azetidin-3-yl)-acetamide], the half-maximal inhibitory concentration (IC50) came to 3600 nM.
